We go through five compounds from US20220054610A1, “SLOW-CYCLING CELL-RNA BASED NANOPARTICLE VACCINE TO TREAT CANCER” (University of Florida Research Foundation, Inc., priority 2018, published 2022).

For assay [1], the target named is T1, FABP3 (Homo sapiens, UniProt P05413).
T1 construct: endogenous in cells; host or cells: patient-derived GBM cells (SCCs and FCCs)
Briefly: C16-BODIPY fatty acid uptake by flow cytometry, FABP3 inhibition. The class given is cell-based. The conditions noted are these: SCCs; 250 nM FABP3 inhibitor. As to the method:
(§1) Each cell line was labeled with CellTrace dye and grown for 5-7 days. Cells were then dissociated and treated with different BODIPY® FLC16 (Molecular probes) concentrations and incubation times described below. Fatty acids conjugated to C16-BODIPY fluorophore undergo native-like metabolism and transport. Dose response was performed with 0, 0.5, 2.5, 5, 10, 25, and 50 nM BODIPY, and the time course was done at a concentration of 5 nM for 1, 4, 5, 10, and 15 min. The cells were then washed and fixed with 4% paraformaldehyde. To determine the amount of fatty acid uptake, cells were analyzed by flow cytometry on a BD LSRII Flow Cytometer. Fatty acid transporter inhibitors SB-FI-26 (Cayman Chemicals, #14191) and BMS309403 (Millipore, #34310) were used to inhibit FABP7 (Kaczocha et al., 2014) and FABP3 (Furuhashi et al., 2007), respectively.

In assay [2] the test system is hGBM SCCs and FCCs. Briefly: Cell death by flow cytometry (propidium iodide incorporation, cleaved caspase 3). The conditions noted are these: for apoptotic cell death (cleaved caspase 3) in SCCs: unlike FCCs, 24 hours of treatment. The class given is cell-based, human. As to the method: Propidium iodide incorporation and expression of cleaved caspase 3 were used to compare the effects of glucose restriction and/or mitochondrial function inhibition (by rotenone or metformin treatment). Briefly, cells were labeled with CellTrace dye and grown in complete medium for 5-7 days before being placed in high glucose (HG; >500 mg/dL) or physiological glucose conditions (PG; 90-110 mg/dL) and/or treated with rotenone (0.5-1 μM) or metformin (10-20 mM) for 24 hours. Media glucose concentrations were monitored daily and maintained constant throughout the experiments by adding glucose to the cell cultures as needed, which prevented the glucose supply exhaustion that might have occurred due to FCCs' higher division rate.
(§2) Propidium iodide and cleaved caspase 3 staining were quantified using flow cytometry. The effects of restricting glucose along with mitochondrial targeting using rotenone or metformin were investigated using the CyQUANT™ assay. Cells were plated at 60,000 cells per well in 96-well plates and exposed to the treatments alone or in combination (physiological glucose, 0.5 μM rotenone, and 10 mM metformin). CyQUANT™ binding dye was added to each well and incubated for 30 min at 37° C. before being quantified using Biotek™ Cytation™ 3 Cell Imaging Multi-Mode Reader.
On the technique in general: Flow cytometry measures light scatter and fluorescence of single cells or particles in a stream.

In assay [3] the test system is L1 SCC, FCC or total unsorted intracranial xenografts. Nature of the assay: In vivo rotenone treatment of intracranially implanted animals, survival. Also on record: species or system NOD-SCID mice. The text has this: Adult male NOD-SCID mice (7-15 weeks old) were used for in vivo tumor implants following NIH and institutional (IACUC) guidelines and regulations for animal care and handling. The mice colonies were maintained at the University of Florida's animal facility. Animals were randomized to cages following implantation. For in vivo tumor invasion assay, FACS cells were intracranially implanted as previously described (Deleyrolle L P, et al. (2011) Brain 134:1331-43; Siebzehnrubl F A, et al. (2013) Hoang-Minh et al., EMBO Mol Med: 1196-1212) and invasion assay was performed 10 weeks post implant. For in vivo TMZ treatment, animals were implanted with 100,000 cells immediately after cell sorting. Tumor-bearing animals were intraperitoneally treated with 5 injections of 20 mg/kg TMZ over 5 days at 3 (hGBM L0) or 4 (hGBM L2) weeks post implantation. For in vivo restricted glucose and mitochondria targeting experiments, animals were xenografted with SCCs or FCCs and subjected to either a high carbohydrate control diet or a custom supplemented high fat/low carbohydrate dietary regimen (sHFLC) (Martuscello R T, et al. (2016) Clin Cancer Res. 22:2482-95). Each group received vehicle or rotenone treatment (0.5 mg/kg i.p, once a week for 6 weeks).

In assay [4] the test system is hGBM cells. Briefly: CyQUANT assay, glucose restriction combined with mitochondrial targeting. The class given is cell-based, human. The conditions noted are these: physiological glucose plus 0.5 μM rotenone or 10 mM metformin, 24 hours. As to the method: as §2
Assay [5] deals with L0, L1, L2 GBM patient-derived cell line xenografts. Nature of the assay: In vivo survival with FABP7 inhibitor and/or 2-DG, Kaplan-Meier and Cox frailty model. On the set-up: species or system NOD-SCID mice. The conditions noted are these: Cox frailty model, all three GBM cell lines grouped.
Assay [6] relates to GBM unsorted and SCC populations. Briefly: Tumor sphere migration assay. In kind it is cell-based, human. As to the method: For quantification of cell migration, tumor spheres were plated onto a laminin/poly-D-lysine coated surface at low density and in the presence of growth factors, FABP7 inhibitor (SB-FI-26), or DMSO as a solvent control. Images were taken from the same spheres 2 hours and 24 hours after plating with a Leica DM IL microscope equipped with a DFC3000G camera and Leica application suite X software. The greatest distance of outgrowing cells was measured using ImageJ, and migration distance was calculated as the difference between the two time points. Only spheres with a diameter greater than 50 μm, 2 hours after plating, were used to measure migration distance.

Assay [7] concerns GBM xenograft tumor cell invasion. Briefly: In vivo tumor cell invasion after FABP7 inhibition. Also on record: species or system NOD-SCID mice. The conditions noted are these: in vivo inhibition of FABP7. The procedure: Tumor invasion was measured using human-specific nestin labeling (Millipore, MAB5326). Full images of brain sections were obtained by multiple gray scale imaging acquired using Spot Advanced software (Spot Imaging Solutions), merged into full images, and inverted into black-and-white images using Photoshop CS6 (Adobe Systems). Staining threshold levels were adjusted in Image J software to distinguish tumor from background, as previously described (Siebzehnrubl F A, et al. (2013) EMBO Mol Med: 1196-1212). Invasion index was obtained by calculating the ratio of the squared-perimeter distance over the area (P2/A). Dissociated tumors are associated with higher invasion indices compared to more spherical tumors characterized by lower invasion indices. High-power images of stained tissues were taken using an IX81-DSU spinning disk confocal microscope (Olympus) fitted with a 60x water immersion objective, and all images were captured as z-stacks (0.5 μm steps). For 3D imaging, pictures were acquired using a UPLSAPO 60x water objective and Hamamatsu ORCA-AG Camera. Images were captured as z-stacks (0.5 μm steps). All image analyses and 3D surface reconstructions utilized the 3i SlideBook v4.2 Software (with Deconvolution Module). Image capture settings were standardized across samples. 3D surface reconstruction rendering cut-off values were also standardized in the 3i SlideBook software.

Assay [8] has as its system L1 SCCs and FCCs. Nature of the assay: CyQUANT proliferation assay, FABP7 inhibitor with high or physiological glucose. In kind it is cell-based, human. The conditions noted are these: 5 days. The text has this:
(FIG. 7A) GSEA comparing RNA sequencing results between SCCs and FCCs (n=3 biological replicates, L0-1-2) for the fatty acid metabolism gene signature. FDR, false discovery rate; NES, normalized enrichment score; Nom., nominal. (FIG. 7B) Results for qRT-PCR of genes differentially expressed between SCCs and FCCs using the RT2 Profiler PCR Array for Human Fatty Acid Metabolism. Changes in transcript levels are given as percent change relative to FCCs (n=3-8, p<0.05, one sample t-test). (FIG. 7C) FABP7 expression in brain (n=4), breast (n=336), colorectal (n=374), lung (n=117), ovarian (n=242), and pancreatic (n=20) cancer cell lines (**, p<0.005, ****, p<0.0001, one-way ANOVA). (FIG. 7D) Evaluation of the Bredel dataset indicated higher expression of FABP7 in glioblastoma (n=27) compared to non-malignant (n=4) brain tissue (**, p<0.005, t-test). […] (FIG. 7J) C16-BODIPY uptake was measured in L1 GBM line SCCs or FCCs cultured with or without 200 nM FABP7 inhibitor (FABP7i, each condition, n=3, *** p<0.0001, linear regression). […] Cell proliferation was assessed using CyQUANT assays 5 days after treatment (n=2-3, * p<0.05, one-way ANOVA with Tukey post-test). (FIG. 7L) C16-BODIPY uptake was measured in the L1 wild-type (WT) and CRISPR-FABP7 (crFABP7) cell line (each condition, n=3, * p<0.05, linear regression). […]

Assay [9] has as its target T2, FABP7 (Homo sapiens, UniProt O15540).
T2 construct: endogenous in cells; host or cells: L1 patient-derived GBM cell line, slow-cycling (SCC) and fast-cycling (FCC) cells
Briefly: C16-BODIPY fatty acid uptake by flow cytometry, FABP7 inhibition. In kind it is cell-based. To be noted: SCCs; 200 nM FABP7 inhibitor, L1. The procedure:
as §1

SMILES strings stand for the structures.

T1 sequence (P05413 whole entry): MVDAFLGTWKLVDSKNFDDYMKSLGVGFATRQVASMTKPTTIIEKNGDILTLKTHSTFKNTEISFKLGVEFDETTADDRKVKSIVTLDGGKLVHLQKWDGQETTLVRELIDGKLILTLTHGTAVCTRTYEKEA
T2 sequence (O15540 whole entry): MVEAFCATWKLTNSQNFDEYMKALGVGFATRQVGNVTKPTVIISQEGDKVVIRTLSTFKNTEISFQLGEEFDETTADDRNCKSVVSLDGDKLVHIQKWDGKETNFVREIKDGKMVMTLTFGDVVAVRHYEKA

For the compound `CCc1c(-c2ccccc2)c(-c2ccccc2)nn1-c1ccccc1-c1cccc(OCC(=O)O)c1` [FABP3 inhibitor], the “uptake of fluorescently labeled fatty acid C16-BODIPY” value in [1] is on record as “significantly decreased”.
`C=C(C)[C@H]1Cc2c(ccc3c2O[C@@H]2COc4cc(OC)c(OC)cc4[C@@H]2C3=O)O1` [rotenone]: the “apoptotic cell death (cleaved caspase 3) in SCCs” value in assay [2] is “significant increase in apoptotic cell death”. Further, the survival entry in assay [3] (FCC-implanted animals, 0.5 mg/kg i.p. once a week) was “did not gain any survival benefit”; in assay [3] (SCC-implanted animals, 0.5 mg/kg i.p. once a week, versus vehicle) it was “significant increase in survival”; in assay [3] (animals implanted with total unsorted population), “improved survival”. Also, the “GBM cell survival, combination with glucose deprivation” value in [4] was “greatest inhibitory effect on GBM cell survival”.
`O=CC[C@@H](O)[C@H](O)[C@H](O)CO` [2-DG, 2-deoxyglucose]: the “cell death, sensitivity of SCCs versus FCCs to glycolysis inhibition” value in assay [2] (0, 5 or 20 mM for 24 hours) was “SCCs are less sensitive to this pharmacological inhibition than FCCs”. For the same compound, in [5], the “average (main) effect HR” value is 0.74 and the “mortality hazard ratio (HR) versus control group” value was 0.84.
For the compound `O=C(O)C1[C@H](c2ccccc2)C(C(=O)Oc2cccc3ccccc23)[C@H]1c1ccccc1` (stereo partly shown) [SB-FI-26], the cell migration entry in assay [6] (FACS-sorted SCCs, all cell lines tested) was “significant decrease of cell migration”; in assay [6] (unsorted total GBM populations, all three lines, 1 and 10 μM), “significantly reduced overall cell migration”. Besides, the “tumor cell invasion in vivo” value in [7] is “decreased of cell invasion”. Moreover, the FCC growth entry in assay [8] (L1 FCCs, decreased glucose plus 200 nM FABP7 inhibitor) is “did not result in any additional growth inhibitory effect on FCCs”. Moreover, the SCC survival/proliferation result in assay [8] (L1 SCCs, lower glucose plus 200 nM FABP7 inhibitor) is on record as “significantly inhibited”. Moreover, the “uptake of fluorescently labeled fatty acid C16-BODIPY” value in assay [9] is given as “significantly decreased”. Further, the “average (main) effect HR” value in assay [5] was 0.38. Further, in [5], the “mortality hazard ratio (HR) versus control group” value is 0.43.
As for `CN(C)C(=N)N=C(N)N` [metformin], the “apoptotic cell death (cleaved caspase 3) in SCCs” value in assay [2] is “significant increase in apoptotic cell death”. In addition, the “GBM cell survival, combination with glucose deprivation” value in assay [4] is given as “greatest inhibitory effect on GBM cell survival”.
